Reference: patent US6638943B2 (The University of Tennessee Research Foundation, priority 2001, dated 2003)
Like-named read-outs stand apart in the source and are kept apart here.

Assays:
human α1d-AR = biological target: T1, human α1d-AR (Homo sapiens, UniProt P25100); experiment: [3H]prazosin equilibrium competition binding, human α1d-AR expressed in HEK cells
T1 construct: expressed in transfected cells; host or cells: HEK cells
T1 sequence (P25100 1-572): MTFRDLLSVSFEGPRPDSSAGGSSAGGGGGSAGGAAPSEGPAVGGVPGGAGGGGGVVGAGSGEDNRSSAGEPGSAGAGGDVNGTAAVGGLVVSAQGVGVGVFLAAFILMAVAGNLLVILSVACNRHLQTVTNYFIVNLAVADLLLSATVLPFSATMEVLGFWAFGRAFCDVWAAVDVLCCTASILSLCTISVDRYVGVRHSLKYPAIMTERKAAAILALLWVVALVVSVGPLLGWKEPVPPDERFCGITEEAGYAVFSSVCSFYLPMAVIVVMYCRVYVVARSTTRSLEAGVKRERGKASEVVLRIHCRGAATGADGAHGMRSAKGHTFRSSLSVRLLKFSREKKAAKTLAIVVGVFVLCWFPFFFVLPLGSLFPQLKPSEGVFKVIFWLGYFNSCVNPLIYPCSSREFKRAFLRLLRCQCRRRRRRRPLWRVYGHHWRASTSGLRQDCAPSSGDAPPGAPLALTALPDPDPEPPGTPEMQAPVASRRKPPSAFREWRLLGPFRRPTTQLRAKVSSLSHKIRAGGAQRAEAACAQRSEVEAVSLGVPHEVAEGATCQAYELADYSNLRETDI

human α1b-AR = biological target: T2, human α1b-AR (Homo sapiens, UniProt P35368); experiment: [3H]prazosin equilibrium competition binding, human α1b-AR expressed in HEK cells
T2 construct: expressed in transfected cells; host or cells: HEK cells
T2 sequence (P35368 1-520): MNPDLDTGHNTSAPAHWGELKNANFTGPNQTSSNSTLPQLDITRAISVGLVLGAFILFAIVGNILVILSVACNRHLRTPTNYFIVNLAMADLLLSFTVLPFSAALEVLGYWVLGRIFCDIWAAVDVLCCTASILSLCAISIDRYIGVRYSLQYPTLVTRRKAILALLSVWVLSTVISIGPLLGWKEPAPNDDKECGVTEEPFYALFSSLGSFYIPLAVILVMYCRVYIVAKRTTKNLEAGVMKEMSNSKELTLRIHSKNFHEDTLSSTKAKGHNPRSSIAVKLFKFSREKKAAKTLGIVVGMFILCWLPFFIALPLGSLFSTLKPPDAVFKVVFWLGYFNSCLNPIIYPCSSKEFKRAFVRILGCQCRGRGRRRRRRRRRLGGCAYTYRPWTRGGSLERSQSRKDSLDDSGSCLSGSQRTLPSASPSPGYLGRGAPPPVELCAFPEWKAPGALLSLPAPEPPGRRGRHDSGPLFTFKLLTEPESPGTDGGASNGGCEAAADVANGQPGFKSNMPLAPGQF

human α2c-AR [1] = biological target: T3, human α2c-AR (Homo sapiens, UniProt P18825); experiment: [3H]Rauwolscine equilibrium competition binding, human α2c-AR expressed in CHO cells
T3 construct: expressed in transfected cells
T3 sequence (P18825 1-462): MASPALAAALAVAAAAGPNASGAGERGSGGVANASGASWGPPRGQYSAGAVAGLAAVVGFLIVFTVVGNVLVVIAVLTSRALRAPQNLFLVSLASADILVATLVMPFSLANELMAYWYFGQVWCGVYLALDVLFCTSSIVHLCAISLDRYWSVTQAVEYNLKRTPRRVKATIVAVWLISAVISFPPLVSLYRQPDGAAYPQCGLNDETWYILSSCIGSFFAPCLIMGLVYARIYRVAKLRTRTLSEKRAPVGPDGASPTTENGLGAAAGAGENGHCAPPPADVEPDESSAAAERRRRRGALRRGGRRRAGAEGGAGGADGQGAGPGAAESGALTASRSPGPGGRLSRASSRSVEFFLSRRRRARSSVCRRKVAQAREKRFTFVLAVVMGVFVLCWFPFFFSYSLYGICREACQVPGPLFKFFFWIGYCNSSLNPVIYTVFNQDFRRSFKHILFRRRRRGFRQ

human α2a-AR [2] = biological target: T4, human α2a-AR (Homo sapiens, UniProt P08913); experiment: [3H]Rauwolscine equilibrium competition binding, human α2a-AR expressed in CHO cells; settings: human α2a-AR in CHO cells
T4 construct: expressed in transfected cells
T4 sequence (P08913 1-465): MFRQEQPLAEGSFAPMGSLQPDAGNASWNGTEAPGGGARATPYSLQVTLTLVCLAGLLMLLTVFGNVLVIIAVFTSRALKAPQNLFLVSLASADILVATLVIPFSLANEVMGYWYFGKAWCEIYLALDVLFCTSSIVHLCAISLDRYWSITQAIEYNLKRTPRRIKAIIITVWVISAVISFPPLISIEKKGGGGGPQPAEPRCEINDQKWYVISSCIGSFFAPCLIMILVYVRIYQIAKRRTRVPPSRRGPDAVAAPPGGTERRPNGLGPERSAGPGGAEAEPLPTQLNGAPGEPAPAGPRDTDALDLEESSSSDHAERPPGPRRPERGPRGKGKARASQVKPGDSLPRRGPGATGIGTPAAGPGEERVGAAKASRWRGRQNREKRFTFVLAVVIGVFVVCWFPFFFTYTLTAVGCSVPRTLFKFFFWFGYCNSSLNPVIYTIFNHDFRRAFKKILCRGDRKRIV

human α2b-AR = biological target: T5, human α2b-AR (Homo sapiens, UniProt P18089); experiment: [3H]Rauwolscine equilibrium competition binding, human α2b-AR expressed in CHO cells
T5 construct: expressed in transfected cells
T5 sequence (P18089 1-450): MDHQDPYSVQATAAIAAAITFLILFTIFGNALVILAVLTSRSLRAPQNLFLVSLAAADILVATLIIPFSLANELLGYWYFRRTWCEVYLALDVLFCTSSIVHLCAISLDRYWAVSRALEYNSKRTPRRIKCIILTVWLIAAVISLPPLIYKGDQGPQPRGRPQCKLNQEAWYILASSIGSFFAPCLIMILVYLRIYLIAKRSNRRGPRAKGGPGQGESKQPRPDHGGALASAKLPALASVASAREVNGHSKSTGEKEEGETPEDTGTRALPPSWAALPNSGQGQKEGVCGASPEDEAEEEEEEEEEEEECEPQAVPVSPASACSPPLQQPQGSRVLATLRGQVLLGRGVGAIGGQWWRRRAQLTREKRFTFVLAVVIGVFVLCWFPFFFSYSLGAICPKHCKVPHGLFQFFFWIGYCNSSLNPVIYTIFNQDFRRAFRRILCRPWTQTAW

human α2a-AR [3] = biological target: T4, human α2a-AR; experiment: Reversal of medetomidine mediated inhibition of forskolin-induced cAMP (6 CRE-LUC reporter), CHO cells expressing α2a-AR; format: cell-based; settings: reversal of medetomidine (10 nM) effect on forskolin (5 μM) cAMP response; mean ± SEM of n=3-4; read-out: Effective Concentration-50 (nM ± SEM) α2a-AR
Method: (§1) The changes in cAMP levels were assessed by luciferase activities using a 6 CRE-LUC reporter gene bioassay.

human α2c-AR [4] = biological target: T3, human α2c-AR; experiment: Reversal of medetomidine mediated inhibition of forskolin-induced cAMP (6 CRE-LUC reporter), CHO cells expressing α2c-AR; format: cell-based
Method: as §1

human α1a-AR = biological target: T6, human α1a-AR (Homo sapiens, UniProt P35348); experiment: [3H]prazosin equilibrium competition binding, human α1a-AR expressed in HEK cells
T6 construct: expressed in transfected cells; host or cells: HEK cells
T6 sequence (P35348 1-466): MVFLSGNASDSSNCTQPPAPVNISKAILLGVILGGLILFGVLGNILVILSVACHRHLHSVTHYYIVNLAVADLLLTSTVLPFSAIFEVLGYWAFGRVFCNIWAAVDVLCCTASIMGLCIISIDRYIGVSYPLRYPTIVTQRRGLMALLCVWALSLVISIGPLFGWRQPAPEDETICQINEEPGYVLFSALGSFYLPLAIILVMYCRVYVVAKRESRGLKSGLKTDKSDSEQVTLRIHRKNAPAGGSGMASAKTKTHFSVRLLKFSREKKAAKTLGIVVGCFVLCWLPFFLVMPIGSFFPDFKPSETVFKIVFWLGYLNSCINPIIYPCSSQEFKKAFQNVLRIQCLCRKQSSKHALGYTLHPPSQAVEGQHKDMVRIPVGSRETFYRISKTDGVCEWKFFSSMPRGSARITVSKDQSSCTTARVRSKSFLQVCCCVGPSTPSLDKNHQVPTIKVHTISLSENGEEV

Ki (human α1d-AR): 7760 nM
Ki (human α1b-AR): 5750 nM
Ki (human α2c-AR [1]): 5.75 nM
pKi α2c-AR (human α2c-AR [1]; Table 3, CHO cells, [3H]rauwolscine, mean ± SEM of n = 4-6): 8.24 ± 0.07
binding affinity for α2c-AR greater than on the α1-AR subtypes (human α2c-AR [1]; from Table 3): ≥ 1000 fold
Ki (human α2a-AR [2]; Table 2, mean ± SEM of n = 4-6, read-out: pKi α2a-AR (converted)): 182 nM
Ki (human α2a-AR [2]; [3H]rauwolscine 2.54 nM, mean ± SEM of four to nine experiments, read-out: Ki = SEM (nM) α2a-AR): 52 ± 3.2 nM
Ki (human α2b-AR; Table 2, mean ± SEM of n = 4-6, read-out: pKi α2b-AR (converted)): 2040 nM
Ki (human α2b-AR; [3H]rauwolscine 2.54 nM, mean ± SEM of four to nine experiments, read-out: Ki = SEM (nM) α2b-AR): 990 ± 85.2 nM
EC50 (human α2a-AR [3]): 660 ± 210 nM
EC50 (human α2c-AR [4]): 15.8 ± 5.2 nM
more potent at inhibiting the action of medetomidine on α2c-AR versus α2a-AR (human α2c-AR [4]; from Table 4): 42 fold
Ki (human α1a-AR): 17000 nM
Structure (SMILES): O=C(NCCCNC(=O)[C@@H]1[C@H]2C[C@H]3c4[nH]c5ccccc5c4CCN3C[C@@H]2CC[C@@H]1O)[C@@H]1[C@H]2C[C@H]3c4[nH]c5ccccc5c4CCN3C[C@@H]2CC[C@@H]1O [Compound 3b]
